Experimental findings from patent US12492174B2, “Morpholine-3-carboxamide derivatives as prostaglandin E2 receptor 4 (EP4) agonists for the treatment of gastrointestinal and pulmonary diseases” (NXERA PHARMA UK LIMITED, priority 2022, dated 2025) are described below.

Data set [1] can be described thus: Unidirectional Caco-2 cell permeability assay. Type of data set: in vitro ADME. As to conditions: human, n=2, apical pH 6.5, basolateral pH 7.4, 1 hour, 37° C. The method, then:
Caco-2 cells (ECACC) were seeded onto 24-well Transwell plates at 2×10^5 cells per well and used in confluent monolayers after a 21 day culture at 37° C. under 5% CO2. Test compounds were incubated at 10 μM, 0.2% DMSO final, n=2 in assay buffer (Hanks balanced salt solution supplemented with 25 mM HEPES, adjusted to pH 6.5). Hanks balanced salt solution supplemented with 25 mM HEPES, adjusted to pH 7.4 (0.2% DMSO final) was used for the basolateral chamber (as receiver).
Incubations were performed at 37° C., with samples removed from both donor and acceptor chambers at T=0 and 1 hour and compound analysed by mass spectrometry (LC-MS/MS) including an analytical internal standard (0.5 μM carbamazepine).
Apparent permeability (Papp) values are shown in Table 4 and were determined from the relationship:
Where V is the volume of each Transwell compartment (apical 125 μL, basolateral 600 μL), and concentrations are the relative MS responses for compound (normalized to internal standard) in the donor chamber before incubation and acceptor chamber at the end of the incubation Area=area of cells exposed for drug transfer (0.33 cm^2).
Lucifer Yellow (LY) was added to the apical buffer in all wells to assess viability of the cell layer. As LY cannot freely permeate lipophilic barriers, a high degree of LY transport indicates poor integrity of the cell layer and wells with a LY Papp>10×10^−6 cm/s were rejected.
Compound recovery from the wells was determined from MS responses (normalized to internal standard) in donor and acceptor chambers at the end of incubation compared to response in the donor chamber pre-incubation.

The target in data set [2] is T1, human EP4 (Homo sapiens, UniProt P35408).
T1 construct: expressed in transfected cells; host or cells: HEK293 cells transduced with EP4 BacMam virus
Put plainly: cAMP Gs functional assay (HTRF cAMP dynamic-2). As to conditions: for Emax: HEK293, HEK293 cells transfected with EP4 Bacmam virus; for EC50: 30 mins at 37° C., −Log of the molarity (M), read-out: cAMP human EP4 pEC50 (converted). Type of data set: cell-based. The method, then:
Cloning, Baculovirus generation, large scale infection of HEK293 cells and membrane preparation: Human prostaglandin E2 receptor 4 (EP4) was cloned into pBacMam expression vector (GeneScript, UK). Transposition of EP4 DNA was performed using Invitrogen's Bac-to-Bac Baculovirus Expression Systems. P0 baculovirus was generated by transfecting SF9 Cells with bacmid DNA using Cellfectin II transfection reagent (ThermoFisher Scientific, UK). Following P0 generation P1 virus was then generated ready for large scale infection and membrane preparation. HEK293 cells were grown in DMEM (ThermoFisher Scientific, UK), supplemented with 10% heat inactivated fetal bovine serum (FBS). Cells were infected at a seeding density of 3.5 million cells/mL in 500 cm^3 flasks at 5% v/v EP4 Bacman. Expression was carried out over a 36 hr period at 37° C. with 5% CO2. The cells were removed using PBS and a cell scrapper. The cell culture was centrifuged at 2500 RPM for 10 mins at 4° C. The supernatant was then poured off and the pellet stored at −80° C. The pellet was defrosted and re-suspended in 15 mL of homogenising buffer (20 mM HEPES, 10 mM EDTA, pH 7.4). Then homogenised in mechanical homogeniser (VMR) for 10 seconds. The membrane was centrifuged in centrifuge tubes at 40,000 g for 15 mins at 4° C. The supernatant was poured away and re-suspended in 15 mL of homogenising buffer. Homogenised for 20 seconds. The membrane was centrifuged at 40,000 g for 45 mins at 4° C. The membrane was re-suspended in 3 mL of storage buffer (20 mM HEPES, 0.1 mM EDTA, pH 7.4) mixing well. The resulting membranes were then stored at −80° C.
cAMP Gs Functional Assay: cAMP production following EP4 receptor activation was determined using the Homogeneous Time-Resolved Fluorescence (HTRF) cAMP dynamic-2 assay (Cisbio, France). HEK293 cells were transfected using a 0.5% EP4 Bacmam virus for 36 hours, before dissociating the cells, and freezing at −150° C.
On the day of testing, increasing concentration of test compounds, alongside positive controls (10 uM PGE2 (Tocris, Abingdon, UK)) and negative control (DMSO (Sigma-Aldrich, UK) were added to a ProxiPlate-384 Plus, White 384-shallow well Mircoplate, (PerkinElmer, USA) using the ECHO dispense.
Cells were defrosted in a water bath and resuspended in DMEM supplemented with 10% FBS before centrifuging at 1200 RPM for 5 mins to form a pellet. The pellet was resuspended in assay buffer (DMEM+0.5 mM IBMX (Tocris, Abingdon, UK)) to 0.5×10^6 cells/mL. Cell suspension, for a final assay concentration of 5000 cell/well was added using the multidrop to the pre-dispensed assay plate. The plate was then incubated at 37° C. for 30 mins, with 5% CO2. The cAMP production was determined as manufacturer's instructions, before plates were read on a PheraStar fluorescence plate reader (BMG LabTech, Germany).
The pEC50 values (−Log of the molarity (M) in mol/liter) were calculated from the mid-point of the curve using dotmatics as shown in Table 3.

The mark [3] stands for this setting: HEK293 cells transfected with EP4 Bacmam virus.

T1 sequence (P35408 whole entry): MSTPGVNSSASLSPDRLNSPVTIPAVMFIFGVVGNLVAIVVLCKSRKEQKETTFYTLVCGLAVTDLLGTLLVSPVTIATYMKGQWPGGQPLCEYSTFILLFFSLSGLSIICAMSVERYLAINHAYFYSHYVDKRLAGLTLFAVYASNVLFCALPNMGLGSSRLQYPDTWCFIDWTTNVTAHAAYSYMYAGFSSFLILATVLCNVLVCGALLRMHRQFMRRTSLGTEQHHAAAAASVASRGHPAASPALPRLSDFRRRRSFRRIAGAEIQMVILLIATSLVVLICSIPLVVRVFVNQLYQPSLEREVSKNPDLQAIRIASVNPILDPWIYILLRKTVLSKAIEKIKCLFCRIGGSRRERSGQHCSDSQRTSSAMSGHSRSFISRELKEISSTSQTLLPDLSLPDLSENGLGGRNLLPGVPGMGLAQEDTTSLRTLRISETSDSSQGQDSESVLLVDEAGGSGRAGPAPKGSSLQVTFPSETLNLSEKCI

The compound `Cc1cc(S(N)(=O)=O)ccc1-c1cccc(CN2CCOC[C@@H]2C(=O)N[C@@H](C)c2ccc(C(=O)O)cc2)c1` [Example 5, 4-((S)-1-((R)-4-((2′-methyl-4′-sulfamoyl-[1,1′-biphenyl]-3-yl)methyl)morpholine-3-carboxamido)ethyl)benzoic acid] showed a Papp A→B at 1 h, 10 μM in data set [1] of 0.59 ×10⁻⁶ cm/s. In data set [2] (positive control 10 uM PGE2), this compound gave an Emax of 100%. The EC50 in data set [2] (setting [3]) was 7.94e-10 M.

As to `C[C@H](NC(=O)[C@H]1COCCN1Cc1cccc(-c2ccc(S(N)(=O)=O)cc2O)c1)c1ccc(C(=O)O)cc1` [Example 29, 4-((S)-1-((R)-4-((2′-hydroxy-4′-sulfamoyl-[1,1′-biphenyl]-3-yl)methyl)morpholine-3-carboxamido)ethyl)benzoic acid], the Emax in data set [2] (positive control 10 uM PGE2) stood at 97%.

Consider `Cc1cc(C(N)=O)ccc1-c1cc(O)cc(CN2CCOC[C@@H]2C(=O)N[C@@H](C)c2ccc(C(=O)O)c(O)c2)c1` [Example 18, 4-((S)-1-((R)-4-((4′-carbamoyl-5-hydroxy-2′-methyl-[1,1′-biphenyl]-3-yl)methyl)morpholine-3-carboxamido)ethyl)-2-hydroxybenzoic acid], for which the Papp A→B at 1 h, 10 μM in data set [1] was determined as 0.78 ×10⁻⁶ cm/s. Besides, the Emax in data set [2] (positive control 10 uM PGE2) stood at 99%. For the same compound, the EC50 in data set [2] (setting [3]) was 3.98e-10 M.

With `Cc1cc(C(N)=O)ccc1-c1cccc(CN2CCOC[C@@H]2C(=O)NCc2ccc(C(=O)O)nc2)c1` [Example 9, 5-[[[(3R)-4-[[3-(4-carbamoyl-2-methyl-phenyl)phenyl]methyl]morpholine-3-carbonyl]amino]methyl]pyridine-2-carboxylic acid], in data set [1], the Papp A→B at 1 h, 10 μM stood at 0.24 ×10⁻⁶ cm/s. The Emax in data set [2] (positive control 10 uM PGE2) was found to be 97%. Also, in data set [2] (setting [3]), the EC50 was 3.98e-08 M.

`Cc1cc(S(N)(=O)=O)ccc1-c1cccc(CN2CCOC[C@@H]2C(=O)N[C@@H](C)c2ccc(C(=O)O)c(O)c2)c1` [Example 25, 2-hydroxy-4-((S)-1-((R)-4-((2′-methyl-4′-sulfamoyl-[1,1′-biphenyl]-3-yl)methyl)morpholine-3-carboxamido)ethyl)benzoic acid]: in data set [1], the Papp A→B at 1 h, 10 μM is < 0.1 ×10⁻⁶ cm/s. This compound also displayed an Emax in data set [2] (positive control 10 uM PGE2) of 97%. Further, the EC50 in data set [2] (setting [3]) is 6.31e-09 M.

As to `C[C@H](NC(=O)[C@H]1COCCN1Cc1cccc(-c2ccc(C(N)=O)cc2O)c1)c1ccc(C(=O)O)cc1` [Example 14, 4-((S)-1-((R)-4-((4′-carbamoyl-2′-hydroxy-[1,1′-biphenyl]-3-yl)methyl)morpholine-3-carboxamido)ethyl)benzoic acid], the Papp A→B at 1 h, 10 μM in data set [1] worked out at 0.15 ×10⁻⁶ cm/s. For the same compound, the Emax in data set [2] (positive control 10 uM PGE2) is 95%. Also, the EC50 in data set [2] (setting [3]) was 7.94e-08 M.

For the compound `NC(=O)c1ccc(-c2cc(CN3CCOC[C@@H]3C(=O)NC3(c4ccc(C(=O)O)cc4)CC3)ccc2O)cc1` [Example 34, (R)-4-(1-(4-((4′-carbamoyl-6-hydroxy-[1,1′-biphenyl]-3-yl)methyl)morpholine-3-carboxamido)cyclopropyl)benzoic acid], the Papp A→B at 1 h, 10 μM in data set [1] came out at 0.39 ×10⁻⁶ cm/s. In data set [2] (positive control 10 uM PGE2), the Emax came to 97%. Moreover, the EC50 in data set [2] (setting [3]) is 3.98e-10 M.

For `Cc1cc(S(N)(=O)=O)ccc1-c1cc(O)cc(CN2CCOC[C@@H]2C(=O)N[C@@H](C)c2ccc(C(=O)O)c(O)c2)c1` [Example 22, 2-hydroxy-4-((S)-1-((R)-4-((5-hydroxy-2′-methyl-4′-sulfamoyl-[1,1′-biphenyl]-3-yl)methyl)morpholine-3-carboxamido)ethyl)benzoic acid], in data set [1], the Papp A→B at 1 h, 10 μM is < 0.2 ×10⁻⁶ cm/s. For the same compound, the Emax in data set [2] (positive control 10 uM PGE2) is 99%. Also, the EC50 in data set [2] (setting [3]) is 2.51e-10 M.

In data set [1], `Cc1cc(C(N)=O)ccc1-c1cc(O)cc(CN2CCOC[C@@H]2C(=O)NC2(c3ccc(C(=O)O)cc3)CC2)c1` [Example 33, (R)-4-(1-(4-((4′-carbamoyl-5-hydroxy-2′-methyl-[1,1′-biphenyl]-3-yl)methyl)morpholine-3-carboxamido)cyclopropyl)benzoic acid] registered a Papp A→B at 1 h, 10 μM of 0.14 ×10⁻⁶ cm/s. Also, the Emax in data set [2] (positive control 10 uM PGE2) is 93%. The EC50 in data set [2] (setting [3]) was 3.16e-12 M.

`C[C@H](NC(=O)[C@H]1COCCN1Cc1ccc(O)c(-c2ccc(S(N)(=O)=O)cc2)c1)c1ccc(C(=O)O)cc1` [Example 24, 4-[(1S)-1-[[(3R)-4-[[4-hydroxy-3-(4-sulfamoylphenyl)phenyl]methyl]morpholine-3-carbonyl]amino]ethyl]benzoic acid] gave a Papp A→B at 1 h, 10 μM in data set [1] of 0.26 ×10⁻⁶ cm/s. Further, the maximal effect (Emax) in data set [2] (positive control 10 uM PGE2) is 96%. Besides, the EC50 in data set [2] (setting [3]) is 2.51e-08 M.

In the case of `Cc1cc(S(N)(=O)=O)ccc1-c1cc(CN2CCOC[C@@H]2C(=O)N[C@@H](C)c2ccc(C(=O)O)cc2)ccn1` [Example 16, 4-[(1S)-1-[[(3R)-4-[[2-(2-methyl-4-sulfamoyl-phenyl)-4-pyridyl]methyl]morpholine-3-carbonyl]amino]ethyl]benzoic acid], the Papp A→B at 1 h, 10 μM in data set [1] is < 0.1 ×10⁻⁶ cm/s. Further, the Emax in data set [2] (positive control 10 uM PGE2) is 97%. For the same compound, the EC50 in data set [2] (setting [3]) was 1.26e-07 M.

The compound `Cc1cc(C(N)=O)ccc1-c1cccc(CN2CCOC[C@@H]2C(=O)N[C@@H](C)c2ccc(C(=O)O)cc2)n1` [Example 2, 4-[(1S)-1-[[(3R)-4-[[6-(4-carbamoyl-2-methyl-phenyl)-2-pyridyl]methyl]-morpholine-3-carbonyl]amino]ethyl]benzoic acid] yielded an Emax in data set [2] (positive control 10 uM PGE2) of 89%. Further, the EC50 in data set [2] (setting [3]) is 1e-06 M.

Regarding `Cc1cc(C(N)=O)ccc1-c1cc(CN2CCOC[C@@H]2C(=O)N[C@@H](C)c2ccc(C(=O)O)cc2)c[n+]([O-])c1` [Example 30, 3-(4-carbamoyl-2-methylphenyl)-5-(((R)-3-(((S)-1-(4-carboxyphenyl)ethyl)carbamoyl)morpholino)methyl)pyridine 1-oxide], the Emax in data set [2] (positive control 10 uM PGE2) amounted to 93%. For the same compound, the EC50 in data set [2] (setting [3]) is 1.58e-07 M.

Compound `Cc1cc(OS(N)(=O)=O)ccc1-c1cccc(CN2CCOC[C@@H]2C(=O)N[C@@H](C)c2ccc(C(=O)O)cc2)c1` [Example 20, 4-((S)-1-((R)-4-((2′-methyl-4′-(sulfamoyloxy)-[1,1′-biphenyl]-3-yl)methyl)morpholine-3-carboxamido)ethyl)benzoic acid] had an Emax in data set [2] (positive control 10 uM PGE2) of 101%. In addition, the EC50 in data set [2] (setting [3]) was 5.01e-10 M.

As to `Cc1cc(C(N)=O)ccc1-c1cccc(CN2CCOC[C@@H]2C(=O)NC(C)c2cc(F)c(C(=O)O)c(F)c2)c1` (single isomer, unassigned) [Example 26], in data set [2] (positive control 10 uM PGE2), the Emax came to 97%.

As to `Cc1cc(C(N)=O)ccc1-c1cccc(CN2CCOC[C@@H]2C(=O)NC(C)c2cc(F)c(C(=O)O)c(F)c2)c1` (single isomer, unassigned) [Example 27], the EC50 in data set [2] (setting [3]) is 2.51e-07 M. This compound also returned a cAMP human EP4 Emax in data set [2] (HEK293 cells transfected with EP4 Bacmam virus, positive control 10 uM PGE2) of 95%.
